Reference: patent US20240342126A1, “HALLUCINOGEN-FATTY ACID COMBINATION” (Mindset Pharma Inc., priority 2021, published 2024)
“Also recorded” adds a separate entry of the source.

Tests used:
[1] = Pharmacokinetics in plasma and CSF after i.n. or s.c. administration of 5-MeO-DMT formulations; settings: Sprague-Dawley, rat, plasma, iv, 1 mg/kg
[2] = test system: C57BL/6J mice; test: Mouse head twitch experiments; assay type: in vivo; settings: for head twitch response of combination with linoleic acid vs test compound alone: equimolar dose of linoleic acid, SC; for effect on test compound-induced head twitches: M100907 0.5 mg/kg IP pretreatment
Experimental: Male, C57BL/6J mice (body weight range 20-30 g) were dosed with the appropriate dose(s) of test compound, or combination of test compounds, and following pre-treatment, the animals were placed in individual observation chambers. Animals were visually assessed for the incidence head twitches continuously over a 1 hr period. Head twitches were defined as a rapid jerk of the head which was not elicited by an external tactile stimulus (Corne S J, Pickering R W (1967) Psychopharmacologia 11 (1): 65-78). Each head twitch was individually counted by a trained observer, and the data expressed as the mean±SEM of 4-10 mice per group. In addition to the total number of head twitches recorded over the 1 hr observation period, head twitches were also scored according to each specific 10 min time bin within the 1 hr observation period (i.e. 0-10 min, 10-20 min, 20-30 min, etc).
Two types of experiments were conducted. In one, the effect of linoleic acid in combination with a test compound (psilocybin or 1-4) was studied. In these experiments, both test compounds, or saline control was injected subcutaneously (SC) 1 min prior to testing. […] In these experiments, M100907 (0.5 mg/kg IP) was injected 30 min prior to a single dose of test compound (i.e. psilocybin or I-4). […] 1 min following SC administration of the test compound, the mice were placed in the observation chambers for measurement of head twitch response.

[3] = target: human 5-HT2A (Homo sapiens, UniProt P28223); settings: read-out: binding affinity 5-HT2A; cited from earlier work
human 5-HT2A, sequence (P28223 whole entry): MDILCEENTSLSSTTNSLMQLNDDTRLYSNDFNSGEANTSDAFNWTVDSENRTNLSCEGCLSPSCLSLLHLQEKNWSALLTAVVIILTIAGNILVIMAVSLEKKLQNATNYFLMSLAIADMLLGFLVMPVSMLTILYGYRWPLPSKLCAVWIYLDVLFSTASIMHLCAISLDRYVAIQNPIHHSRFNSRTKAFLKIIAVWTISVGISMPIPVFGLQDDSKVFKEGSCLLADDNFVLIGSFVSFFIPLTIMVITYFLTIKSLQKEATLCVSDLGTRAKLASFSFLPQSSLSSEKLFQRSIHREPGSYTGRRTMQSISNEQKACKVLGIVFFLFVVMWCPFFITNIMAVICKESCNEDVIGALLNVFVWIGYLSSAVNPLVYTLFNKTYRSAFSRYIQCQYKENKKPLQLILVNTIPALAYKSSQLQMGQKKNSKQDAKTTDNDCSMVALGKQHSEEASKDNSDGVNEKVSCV

For COc1ccc2[nH]cc(CCN(C)C)c2c1 [Compound 5-MeO-DMT, 5-methoxy-N,N-dimethyltryptamine], the AUC(0-inf) [1] was 35.3 ng·h/mL.
In the case of [2H]C([2H])([2H])N(C([2H])([2H])[2H])C([2H])([2H])C([2H])([2H])c1c[nH]c2cccc(O)c12 [Compound I-4, 3-(2-(bis(methyl-d3)amino)ethyl-1,1,2,2-d4)-1H-indol-4-ol], the “head twitches over 1 hr (mean±SEM)” value ([2]; 0.3 mg/kg SC + linoleic acid at […] SC) is reported as 7.8±0.6, the “head twitches over 1 hr (mean±SEM)” value ([2]; 0.3 mg/kg SC + vehicle) is reported as 3.3±0.8 and the “head twitch response of combination with linoleic acid vs test compound alone” value [2] is reported as “more head twitches”. For the same molecule, the “head twitch response of combination with linoleic acid vs test compound alone” value ([2]; listed as 1-4) was “greater head twitch response”.
For COc1cccc([C@H](O)C2CCN(CCc3ccc(F)cc3)CC2)c1OC [Compound M100907, reference compound], the “effect on test compound-induced head twitches” value ([2]; head twitches induced by I-4 6.2 mg/kg SC) was “completely blocked” and the “effect on test compound-induced head twitches” value ([2]; head twitches induced by psilocybin 3 mg/kg SC) was “completely blocked”.
For CN(C)CCc1c[nH]c2ccccc12 [DMT, N,N-dimethyltryptamine], the Ki [3] is listed as 237 nM.
In the case of CCCCC/C=C\C/C=C\CCCCCCCC(=O)O [linoleic acid], the “head twitches over 1 hr (mean±SEM)” value ([2]; linoleic acid alone 10 mg/kg SC) is reported as 1.0±0.7 and the “head twitches relative to vehicle” value ([2]; linoleic acid alone 0.1-10 mg/kg SC) is reported as “did not induce head twitches to a significant degree; also recorded: no significant effect”.
